In PubChem BioAssay AID330 (DTP/NCI, 2004):
Values joined by “and” are separate entries in the source; they are usually repeats but may differ in a detail not shown here. Equal entries are not always repeated. Inconclusive results and toxic doses are left out. The calls were made as follows: active = survival T/C of 150% or more; inactive = T/C below 125% in these data.

System: P388 leukemia ip, CD2F1 mice, survival T/C
Experiment: NCI In Vivo Anticancer Drug Screen. Data for tumor model P388 Leukemia (intraperitoneal) in CD2F1 (CDF1) mice
Conditions: endpoint: median survival time, higher = longer survival
Procedure, shortened: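 Mice carrying the transplanted tumor received test compound or vehicle. Survival was recorded in each group, and the value is the treated-group measurement divided by that of the vehicle-treated control group.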

[1] = dose: 50.0 mg/kg/injection, schedule: Q01DX009 (ip), vehicle: saline
[2] = dose: 100.0 mg/kg/injection, schedule: Q01DX009 (ip), vehicle: saline
[3] = dose: 200.0 mg/kg/injection, schedule: Q01DX009 (ip), vehicle: saline
[4] = dose: 50.0 mg/kg/injection, schedule: Q01DX005 (ip), vehicle: Klucel (hydroxypropylcellulose) (HPC)
[5] = dose: 100.0 mg/kg/injection, schedule: Q01DX005 (ip), vehicle: Klucel (hydroxypropylcellulose) (HPC)
[6] = dose: 25.0 mg/kg/injection, schedule: Q01DX005 (ip), vehicle: Klucel (hydroxypropylcellulose) (HPC)
[7] = dose: 200.0 mg/kg/injection, schedule: Q01DX005 (ip), vehicle: Klucel (hydroxypropylcellulose) (HPC)
[8] = dose: 50.0 mg/kg/injection, schedule: Q01DX009 (ip), vehicle: saline with Tween-80
[9] = dose: 200.0 mg/kg/injection, schedule: Q01DX009 (ip), vehicle: saline with Tween-80
[10] = dose: 100.0 mg/kg/injection, schedule: Q04DX003 (ip), vehicle: Klucel (hydroxypropylcellulose) (HPC)
[11] = dose: 100.0 mg/kg/injection, schedule: Q04DX003 (ip), vehicle: saline with Tween-80
[12] = dose: 200.0 mg/kg/injection, schedule: Q04DX003 (ip), vehicle: saline with Tween-80
[13] = dose: 400.0 mg/kg/injection, schedule: Q04DX003 (ip), vehicle: saline with Tween-80

Measured: T/C

COc1cc2c(cc1OC)C(O)C1CCCNC1C2 (stereo not drawn)
inactive: dose: 25.0 mg/kg/injection, schedule: Q04DX002 (ip), vehicle: saline 98 % of control | dose: 50.0 mg/kg/injection, schedule: Q04DX002 (ip), vehicle: saline 103 % of control | dose: 100.0 mg/kg/injection, schedule: Q04DX002 (ip), vehicle: saline 102 % of control | dose: 200.0 mg/kg/injection, schedule: Q04DX002 (ip), vehicle: saline 102 % of control | dose: 400.0 mg/kg/injection, schedule: Q04DX002 (ip), vehicle: saline 101 % of control

O=C1c2ccccc2C(=O)c2c(NC(=O)c3ccc4c5c(ncnc35)-c3ccccc3C4=O)cccc21
inactive: dose: 50.0 mg/kg/injection, schedule: Q01DX009 (ip), vehicle: Klucel (hydroxypropylcellulose) (HPC) 95 % of control | dose: 100.0 mg/kg/injection, schedule: Q01DX009 (ip), vehicle: Klucel (hydroxypropylcellulose) (HPC) 100 % of control | dose: 200.0 mg/kg/injection, schedule: Q01DX009 (ip), vehicle: Klucel (hydroxypropylcellulose) (HPC) 94 % of control

OC(/C=C\CC(O)(C(F)(F)F)C(F)(F)F)(C(F)(F)F)C(F)(F)F
inactive: dose: 3.12 mg/kg/injection, schedule: Q01DX009 (ip), vehicle: saline 100 % of control | dose: 6.25 mg/kg/injection, schedule: Q01DX009 (ip), vehicle: saline 106 % of control | dose: 12.5 mg/kg/injection, schedule: Q01DX009 (ip), vehicle: saline with Tween-80 91 % of control | dose: 12.5 mg/kg/injection, schedule: Q01DX009 (ip), vehicle: saline 93 % of control

COC(=O)C1(C)C(=O)C=CC2(C)C1CC(O)C1(C)C2C(O)C(O)C2(C)C(c3ccoc3)CC3OC321 (stereo not drawn) (tested in a mixture with another compound)
inactive: dose: 0.75 mg/kg/injection, schedule: Q01DX005 (ip), vehicle: Klucel (hydroxypropylcellulose) (HPC) 102 % of control | dose: 1.5 mg/kg/injection, schedule: Q01DX005 (ip), vehicle: Klucel (hydroxypropylcellulose) (HPC) 96 % of control | dose: 3.0 mg/kg/injection, schedule: Q01DX005 (ip), vehicle: Klucel (hydroxypropylcellulose) (HPC) 96 % of control | dose: 6.0 mg/kg/injection, schedule: Q01DX005 (ip), vehicle: Klucel (hydroxypropylcellulose) (HPC) 99 % of control | dose: 12.0 mg/kg/injection, schedule: Q01DX005 (ip), vehicle: Klucel (hydroxypropylcellulose) (HPC) 103 % of control

CCCCCCCC[N+]1([O-])CCOCC1
inactive: [1] 108 % of control | [2] 97 % of control | [3] 88 % of control

COc1ccc2c(c1O)C13CCN(C)[C@@H](C2)C12CC2/C(=N/O)[C@H]3OC(C)=O (stereo partly drawn)
inactive: [4] 92 % of control | [5] 97 % of control

CC(C)(C)C1CCC2(N3CCOCC3)C(C#N)CC2C1 (stereo not drawn)
inactive: [6] 105 % of control | [4] 102 % of control | dose: 50.0 mg/kg/injection, schedule: Q01DX005 (ip), vehicle: saline + Tween-80 + alcohol 105 % of control | [5] 103 % of control | dose: 100.0 mg/kg/injection, schedule: Q01DX005 (ip), vehicle: saline + Tween-80 + alcohol 110 % of control | [7] 97 % of control | dose: 200.0 mg/kg/injection, schedule: Q01DX005 (ip), vehicle: saline + Tween-80 + alcohol 94 % of control

CCN(c1ccccc1)c1nsc(Cl)n1
inactive: [8] 101 % of control | dose: 100.0 mg/kg/injection, schedule: Q01DX009 (ip), vehicle: saline with Tween-80 104 % of control | [9] 104 % of control

O=C1CCC(Cc2ccccc2)CN1 (stereo not drawn)
inactive: dose: 60.0 mg/kg/injection, schedule: Q01DX005 (ip), vehicle: saline with Tween-80 97 % of control | dose: 120.0 mg/kg/injection, schedule: Q01DX005 (ip), vehicle: saline with Tween-80 101 % of control | dose: 240.0 mg/kg/injection, schedule: Q01DX005 (ip), vehicle: saline with Tween-80 97 % of control

O=C1C(=O)C2CC3(CC1N2Cc1ccccc1)OCCO3
inactive: dose: 8.75 mg/kg/injection, schedule: Q01DX005 (ip), vehicle: Klucel (hydroxypropylcellulose) (HPC) 109 % of control | dose: 17.5 mg/kg/injection, schedule: Q01DX005 (ip), vehicle: Klucel (hydroxypropylcellulose) (HPC) 104 % of control | dose: 35.0 mg/kg/injection, schedule: Q01DX005 (ip), vehicle: Klucel (hydroxypropylcellulose) (HPC) 110 % of control

Nc1nc(SCc2cccc(Br)c2)c2ncn(C3OC(CO)C(O)C3O)c2n1 (stereo not drawn)
inactive: [8] 109 % of control | dose: 66.0 mg/kg/injection, schedule: Q01DX009 (ip), vehicle: saline with Tween-80 100 % of control | [9] 104 % of control

CC(=O)O[C@@H]1CCC2CCC1N2C (stereo partly drawn)
inactive: dose: 50.0 mg/kg/injection, schedule: Q01DX005 (ip), vehicle: saline 97 % of control | dose: 100.0 mg/kg/injection, schedule: Q01DX005 (ip), vehicle: saline 95 % of control | dose: 200.0 mg/kg/injection, schedule: Q01DX005 (ip), vehicle: saline 95 % of control

Cc1c(Cc2ccccc2)[n+](=O)c2ccccc2n1[O-]
inactive: [4] 92 % of control | [5] 95 % of control | [10] 100 % of control | [11] 101 % of control | [7] 99 % of control | dose: 200.0 mg/kg/injection, schedule: Q04DX003 (ip), vehicle: Klucel (hydroxypropylcellulose) (HPC) 98 % of control | [12] 110 % of control | dose: 400.0 mg/kg/injection, schedule: Q01DX005 (ip), vehicle: Klucel (hydroxypropylcellulose) (HPC) 94 % of control | dose: 400.0 mg/kg/injection, schedule: Q04DX003 (ip), vehicle: Klucel (hydroxypropylcellulose) (HPC) 104 % of control | [13] 118 % of control

CCCCCCCCCCCCCCCc1ccc(C(=O)C[n+]2ccccc2)cc1
inactive: dose: 6.25 mg/kg/injection, schedule: Q04DX003 (ip), vehicle: saline with Tween-80 109 % of control | dose: 12.5 mg/kg/injection, schedule: Q04DX003 (ip), vehicle: saline with Tween-80 118 % of control | dose: 16.5 mg/kg/injection, schedule: Q04DX003 (ip), vehicle: saline with Tween-80 95 % of control | dose: 25.0 mg/kg/injection, schedule: Q04DX003 (ip), vehicle: saline with Tween-80 100 % of control

CCC1(C#N)N=C(c2ccccc2)c2ccccc2N1C(=O)Oc1ccccc1 (stereo not drawn)
inactive: dose: 50.0 mg/kg/injection, schedule: Q01DX005 (ip), vehicle: saline with Tween-80 89 % of control | dose: 100.0 mg/kg/injection, schedule: Q01DX005 (ip), vehicle: saline with Tween-80 98 % of control | dose: 200.0 mg/kg/injection, schedule: Q01DX005 (ip), vehicle: saline with Tween-80 95 % of control

CSc1ccc(C(C)=O)cc1
inactive: dose: 50.0 mg/kg/injection, schedule: Q01DX009 (ip), vehicle: saline + alcohol 100 % of control | dose: 100.0 mg/kg/injection, schedule: Q01DX009 (ip), vehicle: saline + alcohol 102 % of control | dose: 200.0 mg/kg/injection, schedule: Q01DX009 (ip), vehicle: saline + alcohol 100 % of control | dose: 400.0 mg/kg/injection, schedule: Q01DX009 (ip), vehicle: saline + alcohol 104 % of control

Nc1ccccc1-c1ccccc1[N+](=O)[O-]
inactive: [1] 95 % of control | [2] 96 % of control | [3] 95 % of control

Cc1cc(C)n(C2=NS(=O)(=O)c3ccccc3N2c2ccccc2)n1
inactive: dose: 100.0 mg/kg/injection, schedule: Q01DX001 (ip), vehicle: saline with Tween-80 102 % of control | dose: 200.0 mg/kg/injection, schedule: Q01DX001 (ip), vehicle: saline with Tween-80 98 % of control | dose: 400.0 mg/kg/injection, schedule: Q01DX001 (ip), vehicle: saline with Tween-80 97 % of control

C=CCOC(=O)CCl
inactive: dose: 25.0 mg/kg/injection, schedule: Q04DX003 (ip), vehicle: Klucel (hydroxypropylcellulose) (HPC) 99 % of control | dose: 50.0 mg/kg/injection, schedule: Q04DX003 (ip), vehicle: Klucel (hydroxypropylcellulose) (HPC) 98 % of control | [10] 93 % of control and 96 % of control

O=c1[nH]c2ccccc2c2ccccc12
inactive: [11] 90 % of control | [12] 90 % of control | [13] 90 % of control

Oc1ccccc1C1NCCc2[nH]cnc21 (stereo not drawn)
inactive: [4] 104 % of control | [5] 102 % of control | [7] 104 % of control

O[C@H]1CCN2CO[C@@H](c3ccccc3)C[C@H]2C1
inactive: dose: 12.5 mg/kg/injection, schedule: Q01DX005 (ip), vehicle: Klucel (hydroxypropylcellulose) (HPC) 102 % of control | [6] 103 % of control | [4] 102 % of control
